Test results taken from US12018023B2 (NERVIANO MEDICAL SCIENCES S.R.L., priority 2018, dated 2024).
pIC50: −log10 of the molar value.

What was measured:
[1] = molecular target: T1, IDH1^R132H homodimer enzyme (Homo sapiens, UniProt O75874, R132H); experiment: NADPH depletion assay, IDH1 R132H; type: biochemical
T1 construct: purchased not specified
Description: (§1) IDH mutated enzyme activity converting alpha-ketoglutarate to 2-hydroxyglutaric acid is measured using a NADPH depletion assay. In the assay the remaining cofactor is measured at the end of the reaction with the addition of a catalytic excess of diaphorase and resazurin, to generate a fluorescent signal in proportion to the amount of NADPH remaining. IDH1 WT enzyme as well as mutated isoforms IDH1^R132H, IDH1^R132C, and IDH^2R172K enzymes are commercially available proteins (see e.g. Sino Biological, Abcam, Active Motif or Creative BioMart).
(§2) IDH1^R132H homodimer enzyme are diluted to 8 nM, in 10 μL of Assay Buffer (150 mM NaCl, 50 mM Tris-HCl pH 7.6, 10 mM MgCl2, 0.001% Triton X-100, 4 mM β-mercaptoethanol); 0.2 uL of test compound, previously serially diluted 1 to 3, >10 experimental points from 1 mM in DMSO, is added and the mixture is incubated for 15 minutes at room temperature. The reaction is started with the addition of 10 μL of Substrate Mix (12 uM NADPH, 3.4 mM alpha-ketoglutarate in Assay Buffer) and the mixture is incubated for 60 minutes at room temperature. The reaction is terminated with the addition of 5 μl of Detection Buffer (100 μg/mL diaphorase, 30 μM resazurin, in IX Assay Buffer), and is incubated for 15 minute before reading on a ViewLux as platereader at Ex544/Em590.

IDH1^R132C = molecular target: T2, IDH1^R132C (Homo sapiens, UniProt O75874, R132C); experiment: NADPH depletion assay, IDH1 R132C; type: biochemical
T2 construct: purchased not specified
Description: as §1, §2
Compounds are assayed for their activity against IDH1^R132C following the same assay as above with the following modifications: IDH1^R132C and alpha-ketoglutarate final concentrations in the Assay Buffer is 2 nM and 0.14 mM, respectively.

T2 sequence (O75874 whole entry R132C): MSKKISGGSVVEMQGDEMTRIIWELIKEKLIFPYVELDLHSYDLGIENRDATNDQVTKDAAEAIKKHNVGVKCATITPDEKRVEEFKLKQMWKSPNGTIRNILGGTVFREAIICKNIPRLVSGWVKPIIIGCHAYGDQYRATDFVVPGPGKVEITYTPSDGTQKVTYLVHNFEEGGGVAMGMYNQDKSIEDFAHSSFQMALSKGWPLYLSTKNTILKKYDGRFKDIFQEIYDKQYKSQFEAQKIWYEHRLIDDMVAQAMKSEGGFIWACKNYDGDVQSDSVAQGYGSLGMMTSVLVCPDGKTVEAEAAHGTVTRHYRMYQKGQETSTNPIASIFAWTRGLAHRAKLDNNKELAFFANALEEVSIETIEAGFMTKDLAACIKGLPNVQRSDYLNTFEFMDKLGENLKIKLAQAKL
T1 sequence (O75874 whole entry R132H): as the sequence (O75874 whole entry R132C) above, with C132H counted along it

Row | Compound | pIC50 [1] | pIC50 (IDH1^R132C)
1 | COC(=O)c1ccc([C@H](C)Nc2ncc3ccc(=O)n(Cc4ccccc4)c3n2)cc1 [cpd 1, Methyl 4-{(1S)-1-[(8-benzyl-7-oxo-pyrido[2,3-d]pyrimidin-2-yl)amino]ethyl}benzoate] | 5.74 | 6.21
2 | COC(=O)c1ccc([C@H](C)Nc2ncc3ccc(=O)n(CC(C)C)c3n2)cc1 [cpd 5, methyl 4-[(1S)-1-{[8-(2-methylpropyl)-7-oxo-pyrido[2,3-d]pyrimidin-2-yl]amino}ethyl]benzoate] | 5.95 | 6.35
3 | COC(=O)c1ccc([C@H](C)Nc2ncc3ccc(=O)n(Cc4cc(F)cc(F)c4)c3n2)cc1 [cpd 7, methyl 4-[(1S)-1-{[8-(3,5-difluorobenzyl)-7-oxo-pyrido[2,3-d]pyrimidin-2-yl]amino}ethyl]benzoate] | 5.53 | 5.85
4 | COC(=O)c1ccc([C@H](C)Nc2ncc3ccc(=O)n(Cc4ccc(F)cc4C(F)(F)F)c3n2)cc1 [cpd 8, methyl-4-[(1S)-1-({8-[4-fluoro-2-(trifluoromethyl)benzyl]-7-oxo-pyrido[2,3-d]pyrimidin-2-yl}amino)ethyl]benzoate] | 5.61 | 5.86
5 | COC(=O)c1ccc([C@H](C)Nc2ncc3ccc(=O)n(C(C)C)c3n2)cc1 [cpd 9, methyl 4-[(1S)-1-{[7-oxo-8-(propan-2-yl)-pyrido[2,3-d]pyrimidin-2-yl]amino}ethyl]benzoate] | 5.82 | 6.22
6 | COC(=O)c1ccc([C@H](C)Nc2ncc3ccc(=O)n(CC4(C)COC4)c3n2)cc1 [cpd 10, methyl 4-[(1S)-1-({8-[(3-methyloxetan-3-yl)methyl]-7-oxo-pyrido[2,3-d]pyrimidin-2-yl}amino)ethyl]benzoate] | 5.41 | 5.72
7 | C[C@H](Nc1ncc2ccc(=O)n(CCF)c2n1)c1ccc(Cl)cc1 [cpd 17, 2-{[(1S)-1-(4-chlorophenyl)ethyl]amino}-8-(2-fluoroethyl)pyrido[2,3-d]pyrimidin-7(8H)-one] | 5.31 | 5.72
8 | C[C@H](Nc1ncc2ccc(=O)n(CC(F)(F)F)c2n1)c1ccc(Cl)cc1 [cpd 18, 2-{[(1S)-1-(4-chlorophenyl)ethyl]amino}-8-(2,2,2-trifluoroethyl)pyrido[2,3-d]pyrimidin-7(8H)-one] | 5.39 | 5.81
9 | COc1ccc(Cn2c(=O)ccc3cnc(N[C@@H](C)c4ccc(Cl)cc4)nc32)cc1 [cpd 21, 2-{[(1S)-1-(4-chlorophenyl)ethyl]amino}-8-(4-methoxybenzyl)pyrido[2,3-d]pyrimidin-7(8H)-one] | 5.60 | 6.23
10 | C[C@H](Nc1ncc2ccc(=O)n(Cc3ccc(F)cc3F)c2n1)c1ccc(Cl)cc1 [cpd 25, 2-{[(1S)-1-(4-chlorophenyl)ethyl]amino}-8-(2,4-difluorobenzyl)pyrido[2,3-d]pyrimidin-7(8H)-one] | 5.71 | 6.28
11 | Cc1nc(N[C@@H](C)c2ccc(Cl)cc2)nc2c1ccc(=O)n2CC(C)C [cpd 32, 2-{[(1S)-1-(4-chlorophenyl)ethyl]amino}-4-methyl-8-(2-methylpropyl)pyrido[2,3-d]pyrimidin-7(8H)-one] | 5.42 | 5.94
12 | COc1ccc([C@H](C)Nc2ncc3ccc(=O)n(CC(C)(C)C)c3n2)cc1 [cpd 33, 8-(2,2-dimethylpropyl)-2-{[(1S)-1-(4-methoxyphenyl)ethyl]amino}pyrido[2,3-d]pyrimidin-7(8H)-one] | 6.34 | 6.72
13 | C[C@H](Nc1ncc2ccc(=O)n(CC(C)(C)C)c2n1)c1ccccc1 [cpd 40, 8-(2,2-dimethylpropyl)-2-{[(1S)-1-phenylethyl]amino}pyrido[2,3-d]pyrimidin-7(8H)-one] | 6.80 | 7.15
14 | CC(C)(C)Cn1c(=O)ccc2cnc(NC(C)(C)c3ccccc3)nc21 [cpd 41, 8-(2,2-dimethylpropyl)-2-[(2-phenylpropan-2-yl)amino]pyrido[2,3-d]pyrimidin-7(8H)-one] | 5.61 | 5.85
15 | CC(C)(C)Cn1c(=O)ccc2cnc(NC3(c4ccccc4)CC3)nc21 [cpd 42, 8-(2,2-dimethylpropyl)-2-[(1-phenylcyclopropyl)amino]pyrido[2,3-d]pyrimidin-7(8H)-one] | 5.86 | 6.02
16 | CC(C)(C)Cn1c(=O)ccc2cnc(NC3(c4ccccc4)CCC3)nc21 [cpd 43, 8-(2,2-dimethylpropyl)-2-[(1-phenylcyclobutyl)amino]pyrido[2,3-d]pyrimidin-7(8H)-one] | 5.78 | 5.98
17 | CC(Nc1ncc2ccc(=O)n(CC(C)(C)C)c2n1)C12CC3CC(CC(C3)C1)C2 (stereo not drawn) [cpd 44, 8-(2,2-dimethylpropyl)-2-{[1-(tricyclo[3.3.1.1^3,7]dec-1-yl)ethyl]amino}pyrido[2,3-d]pyrimidin-7(8H)-one] | 5.96 | 6.09
18 | C[C@H](Nc1ncc2ccc(=O)n(CC3(C)COC3)c2n1)c1ccc2ccccc2c1 [cpd 45, 8-[(3-methyloxetan-3-yl)methyl]-2-{[(1S)-1-(naphthalen-2-yl)ethyl]amino}pyrido[2,3-d]pyrimidin-7(8H)-one] | 6.26 | 6.69
19 | C[C@H](Nc1ncc2cc(F)c(=O)n(CC(C)(C)C)c2n1)c1ccccc1 [cpd 47, 8-(2,2-Dimethyl-propyl)-6-fluoro-2-((S)-1-phenyl-ethylamino)-8H-pyrido[2,3-d]pyrimidin-7-one] | 5.74 | 6.22
20 | C[C@H](Nc1ncc2ccc(=O)n(CC(C)(C)C)c2n1)c1nc(-c2ccc(Cl)cc2)no1 [cpd 52, 2-({(1S)-1-[3-(4-chlorophenyl)-1,2,4-oxadiazol-5-yl]ethyl}amino)-8-(2,2-dimethylpropyl)pyrido[2,3-d]pyrimidin-7(8H)-one] | 5.75 | 6.10
21 | C[C@H](Nc1ncc2ccc(=O)n(Cc3ccccc3)c2n1)c1nc(-c2ccc(Cl)cc2)no1 [cpd 53, 8-benzyl-2-({(1S)-1-[3-(4-chlorophenyl)-1,2,4-oxadiazol-5-yl]ethyl}amino)pyrido[2,3-d]pyrimidin-7(8H)-one] | 6.03 | 6.28
22 | CC(C)[C@H](C)n1c(=O)ccc2cnc(N[C@@H](C)c3ccc(N4CCNCC4)nc3)nc21 [cpd 180, 8-[(2S)-3-methylbutan-2-yl]-2-({(1S)-1-[6-(piperazin-1-yl)pyridin-3-yl]ethyl}amino)pyrido[2,3-d]pyrimidin-7(8H)-one] |  | 5.45
23 | C=CC(=O)N1CCN(Cc2ccc([C@H](C)Nc3ncc4ccc(=O)n(CC)c4n3)cc2)[C@H](C)C1 [cpd 207, 2-{[(1S)-1-(4-{[(2R)-4-acryloyl-2-methylpiperazin-1-yl]methyl}phenyl)ethyl]amino}-8-ethylpyrido[2,3-d]pyrimidin-7(8H)-one] |  | 6.20
24 | C=CC(=O)N1CCN(Cc2ccc([C@H](C)Nc3ncc4ccc(=O)n(CC)c4n3)cc2)C[C@H]1C [cpd 208, 2-{[(1S)-1-(4-{[(3R)-4-acryloyl-3-methylpiperazin-1-yl]methyl}phenyl)ethyl]amino}-8-ethylpyrido[2,3-d]pyrimidin-7(8H)-one] |  | 6.67
25 | C=CC(=O)N1CCN(Cc2ccc([C@H](C)Nc3ncc4ccc(=O)n(CC)c4n3)cc2)[C@@H](C)C1 [cpd 210, 2-{[(1S)-1-(4-{[(2S)-4-acryloyl-2-methylpiperazin-1-yl]methyl}phenyl)ethyl]amino}-8-ethylpyrido[2,3-d]pyrimidin-7(8H)-one] |  | 6.74
26 | C=CC(=O)N1CCN(Cc2ccc([C@H](C)Nc3ncc4ccc(=O)n(CC)c4n3)cc2)C[C@@H]1C [cpd 211, 2-{[(1S)-1-(4-{[(3S)-4-acryloyl-3-methylpiperazin-1-yl]methyl}phenyl)ethyl]amino}-8-ethylpyrido[2,3-d]pyrimidin-7(8H)-one] |  | 6.28
27 | C=CC(=O)N1CC[C@@H](Oc2ccc([C@H](C)Nc3ncc4ccc(=O)n(CC)c4n3)cc2)C1 [cpd 223, 2-{[(1S)-1-(4-{[(3R)-1-acryloylpyrrolidin-3-yl]oxy}phenyl)ethyl]amino}-8-ethylpyrido[2,3-d]pyrimidin-7(8H)-one] |  | 5.78
28 | CCn1c(=O)ccc2cnc(N[C@@H](C)c3ccc(CN4CCN(C(=O)OC(C)(C)C)CC4)cc3)cc21 [cpd 232, 4-{4-[(S)-1-(1-Ethyl-2-oxo-1,2-dihydro-[1,6]naphthyridin-7-ylamino)-ethyl]-benzyl}-piperazine-1-carboxylic acid tert-butyl ester] |  | 6.48
29 | C=CC(=O)N1CCN(Cc2ccc([C@H](C)Nc3cc4c(ccc(=O)n4CC)cn3)cc2)CC1 [cpd 236, 7-{(S)-1-[4-(4-Acryloyl-piperazin-1-ylmethyl)-phenyl]-ethylamino}-1-ethyl-1H-[1,6]naphthyridin-2-one] |  | 6.98
30 | CCC(=O)N1CCN(C(CC)c2ccc([C@H](C)Nc3ncc4ccc(=O)n(C(C)C)c4n3)cc2)CC1 (stereo partly drawn) [cpd 240, 2-{[(1S)-1-{4-[1-(4-propanoylpiperazin-1-yl)propyl]phenyl}ethyl]amino}-8-(propan-2-yl)pyrido[2,3-d]pyrimidin-7(8H)-one] |  | 7.17
